Tested on: cholesterol absorption (serum 3H-cholesterol)
Experiment: In Vivo Assay of Hypolipidemic Agents using the Rat Cholesterol Absorption Model
Design: species or system Sprague-Dawley rats
Details: peroral, 0.1 mg/kg (footnote 5), serum 3H-cholesterol vs vehicle control
Procedure: In Vivo Assay of Hypolipidemic Agents using the Rat Cholesterol Absorption Model. This model is based on models described by Burnett et al (2002), Bioorg. Med. Chem. Lett. 2002 Feb. 11;12(3):315-8 and J. Lipid Res. 1999 October;40(10):1747-57. Female Sprague-Dawley rats weighing 150-250 g are separated into groups of […] and fasted overnight. The animals (4-6/group) are dosed perorally with 300 μL test compounds in olive oil or suitable vehicle. Thirty minutes later, 3-5 microCuries ^3H-cholesterol per rat are delivered perorally in 300 μL olive oil. After three hours, 200 μL serum is collected, vortexed with scintillation fluid, and measured for radioactivity in a scintillation counter. Percent inhibition is defined as 100*(1−Ctest/Cctrl), where Ctest and Cctl refer to ^3H levels in serum for the test compound and for the vehicle only control, respectively. Percent inhibition values are reported for a fixed dose. The ED50 is the dose at which the half-maximal effect on serum ^3H levels is observed for a given test compound.
Representative compounds of the invention were tested in the Rat Cholesterol Absorption model above.

In the case of O=C1[C@H](CC[C@H](O)c2ccc(F)cc2)[C@@H](c2ccc(-c3cccc([C@@H]4O[C@H](CO)[C@@H](O)[C@H](O)[C@H]4O)c3)cc2O)N1c1ccccc1 [Example 65, (1S)-1,5-Anhydro-1-(4′-{(2S,3R)-3-[(3S)-3-(4-fluorophenyl)-3-hydroxypropyl]-4-oxo-1-phenylazetidin-2-yl}-3′-hydroxybiphenyl-3-yl)-D-glucitol], the “% inhibition at 0.1 mg/kg” value is reported as 60^5%.

Same assay, conditions: peroral, 0.3 mg/kg (footnote 6), serum 3H-cholesterol vs vehicle control

With O=C1[C@H](CC[C@H](O)c2ccc(F)cc2)[C@@H](c2ccc(-c3ccc([C@@H]4O[C@H](CO)[C@@H](O)[C@H](O)[C@H]4O)cc3)cc2O)N1c1ccccc1 [Example 66, (1S)-1,5-Anhydro-1-(4′-{(2S,3R)-3-[(3S)-3-(4-fluorophenyl)-3-hydroxypropyl]-4-oxo-1-phenylazetidin-2-yl}-3′-hydroxybiphenyl-4-yl)-D-glucitol] the “% inhibition at 0.3 mg/kg” value was 71^6%.
In the case of O=C1[C@H](CC[C@H](O)c2ccc(F)cc2)[C@@H](c2ccc(-c3cccc([C@@H](O)[C@H]4OC(O)[C@H](O)[C@@H](O)[C@@H]4O)c3)cc2)N1c1ccccc1 (stereo partly drawn) [Example 72, (6R)-6-C-(4′-{(2S,3R)-3-[(3S)-3-(4-Fluorophenyl)-3-hydroxypropyl]-4-oxo-1-phenylazetidin-2-yl}biphenyl-3-yl)-D-glucopyranose], the “% inhibition at 0.3 mg/kg” value is reported as 27^6%.

Same assay, conditions: peroral, 5 mg/kg (footnote 3), serum 3H-cholesterol vs vehicle control

In the case of O=C1[C@H](CC[C@H](O)c2ccc(F)cc2)[C@@H](c2ccc(-c3cccc(P(=O)(O)O)c3)cc2O)N1c1ccccc1 [Example 61, (4′-{(2S,3R)-3-[(3S)-3-(4-Fluorophenyl)-3-hydroxypropyl]-4-oxo-1-phenylazetidin-2-yl}-3′-hydroxybiphenyl-3-yl)phosphonic Acid], the “% inhibition at 5 mg/kg” value is reported as 58^3%.

Same assay, conditions: peroral, 10 mg/kg (footnote 1), serum 3H-cholesterol vs vehicle control

For O=C1[C@H](CC[C@H](O)c2ccc(F)cc2)[C@@H](c2ccc(-c3cccc([N+](=O)[O-])c3)cc2)N1c1ccc(F)cc1 [Example 23, (3R,4S)-1-(4-fluorophenyl)-3-[(3S)-3-(4-fluorophenyl)-3-hydroxypropyl]-4-(3′-nitrobiphenyl-4-yl)azetidin-2-one], the “% inhibition at 10 mg/kg” value was 54^1%.
CC(=O)Nc1cccc(-c2ccc([C@@H]3[C@@H](CC[C@H](O)c4ccc(F)cc4)C(=O)N3c3ccc(F)cc3)cc2)c1 [Example 26, N-(4′-{(2S,3R)-1-(4-fluorophenyl)-3-[(3S)-3-(4-fluorophenyl)-3-hydroxypropyl]-4-oxoazetidin-2-yl}biphenyl-3-yl)acetamide] was tested, and the “% inhibition at 10 mg/kg” value was 76^1%.

Same assay, conditions: po, peroral, 1 mg/kg, serum 3H-cholesterol 3 h after cholesterol dose, vs vehicle control

First: O=C(O)c1ccc(-c2ccc([C@@H]3[C@@H](CC[C@H](O)c4ccc(F)cc4)C(=O)N3c3ccc(F)cc3)cc2)cc1 [Example 22, 4′-{(2S,3R)-1-(4-fluorophenyl)3-[(3S)-3-(4-fluorophenyl)-3-hydroxypropyl]-4-oxoazetidin-2-yl]biphenyl-4-carboxylic acid]
Second: Nc1ccc(-c2ccc([C@@H]3[C@@H](CC[C@H](O)c4ccc(F)cc4)C(=O)N3c3ccc(F)cc3)cc2)cc1 [Example 28, (3R,4S)-4-(4′-aminobiphenyl-4-yl)-1-(4-fluorophenyl)-3-[(3S)-3-(4-fluorophenyl)-3-hydroxypropyl]azetidin-2-one]
The inhibition in vivo at 1 mg/kg of the first is lower: 52% for the first, 56% for the second.

Compared with O=C1[C@H](CC[C@H](O)c2ccc(F)cc2)[C@@H](c2ccc(-c3cccc(O)c3)cc2O)N1c1ccccc1 [Example 42, (3R,4S)-4-(3,3′-Dihydroxybiphenyl-4-yl)-3-[(3S)-3-(4-fluorophenyl)-3-hydroxypropyl]-1-phenylazetidin-2-one], O=C1[C@H](CCC(O)c2ccc(F)cc2)[C@@H](c2ccc(-c3cccc(S(=O)(=O)O)c3)cc2O)N1c1ccccc1 (stereo partly drawn) [Example 53, Sodium 4′-{(2S,3R)-3-[(3S/R)-3-(4-fluorophenyl)-3-hydroxypropyl]-4-oxo-1-phenylazetidin-2-yl}-3′-hydroxybiphenyl-3-sulfonate] is lower in inhibition in vivo at 1 mg/kg: 87% for the first, 78% for the second.

Compared with O=C1[C@H](CC[C@H](O)c2ccc(F)cc2)[C@@H](c2cccc(-c3cccc(O)c3)c2)N1c1ccc(F)cc1 [Example 44, (3R,4S)-1-(4-fluorophenyl)-3-[(3S)-3-(4-fluorophenyl)-3-hydroxypropyl]-4-(3′-hydroxybiphenyl-3-yl)azetidin-2-one], O=C1[C@H](CC[C@H](O)c2ccc(F)cc2)[C@@H](c2ccc(-c3cccc(O)c3)cc2)N1c1ccccc1 [Example 57, (3R,4S)-3-[(3S)-3-(4-Fluorophenyl)-3-hydroxypropyl]-4-(3′-hydroxybiphenyl-4-yl)-1-phenylazetidin-2-one] is higher in inhibition in vivo at 1 mg/kg: 24% for the first, 73% for the second.

Compared with O=C1[C@H](CC[C@H](O)c2ccc(F)cc2)[C@@H](c2ccc(Br)cc2)N1c1ccccc1 [Example 46, (3R,4S)-4-(4-Bromophenyl)-3-[(3S)-3-(4-fluorophenyl)-3-hydroxypropyl]-1-phenylazetidin-2-one], O=C1[C@H](CC[C@H](O)c2ccc(F)cc2)[C@@H](c2ccc(-c3cccc(B(O)O)c3)cc2)N1c1ccccc1 [Example 59, (4′-{(2S,3R)-3-[(3S)-3-(4-Fluorophenyl)-3-hydroxypropyl]-4-oxo-1-phenylazetidin-2-yl}biphenyl-3-yl)boronic acid] is higher in inhibition in vivo at 1 mg/kg: 30% for the first, 70% for the second.

Compared with O=C1[C@H](CC[C@H](O)c2ccc(F)cc2)[C@@H](c2ccc(-c3cccc(O)c3)cn2)N1c1ccccc1 [Example 49, (3R,4S)-3-[(3S)-3-(4-Fluorophenyl)-3-hydroxypropyl]-4-[5-(3-hydroxyphenyl)pyridin-2-yl]-1-phenylazetidin-2-one], O=C1[C@H](CC[C@H](O)c2ccc(F)cc2)[C@@H](c2ccc(-c3cccc(O)c3)s2)N1c1ccccc1 [Example 50, (3R,4S)-3-[(3S)-3-(4-Fluorophenyl)-3-hydroxypropyl]-4-[5-(3-hydroxyphenyl)-2-thienyl]-1-phenylazetidin-2-one] is lower in inhibition in vivo at 1 mg/kg: 30% for the first, 27% for the second.

Compared with O=C1[C@H](CC[C@H](O)c2ccc(F)cc2)[C@@H](c2ccc(-c3ccc(O)cc3)s2)N1c1ccccc1 [Example 51, (3R,4S)-3-[(3S)-3-(4-Fluorophenyl)-3-hydroxypropyl]-4-[5-(4-hydroxyphenyl)-2-thienyl]-1-phenylazetidin-2-one], O=C1[C@H](CC[C@H](O)c2ccc(F)cc2)[C@@H](c2ccc(-c3cccc(P(=O)(O)O)c3)cc2)N1c1ccccc1 [Example 56, (4′-{(2S,3R)-3-[(3S)-3-(4-Fluorophenyl)-3-hydroxypropyl]-4-oxo-1-phenylazetidin-2-yl}biphenyl-3-yl)phosphonic acid] is higher in inhibition in vivo at 1 mg/kg: 39% for the first, 59% for the second.

First: O=C1[C@H](CC[C@H](O)c2ccc(F)cc2)[C@@H](c2ccc(-c3cccc([C@@H]4O[C@H](CO)[C@@H](O)[C@H](O)[C@H]4O)c3)cc2)N1c1ccccc1 [Example 64, (1S)-1,5-Anhydro-1-(4′-{(2S,3R)-3-[(3S)-3-(4-fluorophenyl)-3-hydroxypropyl]-4-oxo-1-phenylazetidin-2-yl}biphenyl-3-yl)-D-glucitol]
Second: O=C1[C@H](CC[C@H](O)c2ccc(F)cc2)[C@@H](c2ccc(-c3cccc([C@H](O)[C@H]4OC(O)[C@H](O)[C@@H](O)[C@@H]4O)c3)cc2)N1c1ccccc1 (stereo partly drawn) [Example 71, (6S)-6-C-(4′-{(2S,3R)-3-[(3S)-3-(4-Fluorophenyl)-3-hydroxypropyl]-4-oxo-1-phenylazetidin-2-yl}biphenyl-3-yl)-D-glucopyranose]
The inhibition in vivo at 1 mg/kg of the first is higher: 67% for the first, 65% for the second.

Compared with O=C1[C@H](CC[C@H](O)c2ccc(F)cc2)[C@@H](c2ccc(-c3cccc([C@H](O)[C@H]4OC(O)[C@H](O)[C@@H](O)[C@@H]4O)c3)cc2O)N1c1ccccc1 (stereo partly drawn) [Example 73, (6S)-6-C-(4′-{(2S,3R)-3-[(3S)-3-(4-Fluorophenyl)-3-hydroxypropyl]-4-oxo-1-phenylazetidin-2-yl}-3′-hydroxybiphenyl-3-yl)-D-glucopyranose], O=C1[C@H](CC[C@H](O)c2ccc(F)cc2)[C@@H](c2ccc(-c3cccc([C@@H](O)[C@H]4OC(O)[C@H](O)[C@@H](O)[C@@H]4O)c3)cc2O)N1c1ccccc1 (stereo partly drawn) [Example 74, (6R)-6-C-(4′-{(2S,3R)-3-[(3S)-3-(4-Fluorophenyl)-3-hydroxypropyl]-4-oxo-1-phenylazetidin-2-yl}-3′-hydroxybiphenyl-3-yl)-D-glucopyranose] is higher in inhibition in vivo at 1 mg/kg: 59% for the first, 67% for the second.

Going from O=C1[C@H](CC[C@H](O)c2ccc(F)cc2)[C@@H](c2ccc(-c3cccc([C@H](O)[C@@H](O)[C@@H](O)[C@H](O)[C@@H](O)CO)c3)cc2O)N1c1ccccc1 [Example 75, (6S)-6-C-(4′-{(2S,3R)-3-[(3S)-3-(4-Fluorophenyl)-3-hydroxypropyl]-4-oxo-1-phenylazetidin-2-yl}-3′-hydroxybiphenyl-3-yl)-D-glucitol] to O=C1[C@H](CC[C@H](O)c2ccc(F)cc2)[C@@H](c2ccc(-c3cccc(OC[C@H]4OC(O)[C@H](O)[C@@H](O)[C@@H]4O)c3)cc2)N1c1ccc(F)cc1 (stereo partly drawn) [Example 76, 6-O-(4′-{(2S,3R)-1-(4-Fluorophenyl)-3-[(3S)-3-(4-fluorophenyl)-3-hydroxypropyl]-4-oxoazetidin-2-yl}biphenyl-3-yl)-D-glucopyranose], the inhibition in vivo at 1 mg/kg falls from 68% to 56%.

Source: patent US7320972B2, “4-Biarylyl-1-phenylazetidin-2-ones” (Microbia, Inc., priority 2003, dated 2008)
